# Measurements taken from ChEMBL document CHEMBL3885881, “DrugMatrix”.
# Species on record: Rattus norvegicus
# Experiment: DrugMatrix - Regimen: Daily Repeat
# Format: toxicity, organism-based, Sprague-Dawley
# Set-up: regimen Daily Repeat, gender Male, age 6-8 weeks
# Details: in vivo, po, route oral GAVAGE, […]; for ABSOLUTE BASOPHIL / ABSOLUTE EOSINOPHIL / ABSOLUTE LYMPHOCYTE / ABSOLUTE MONOCYTE / ABSOLUTE SEGMENTED NEUTROPHIL / BASOPHIL / EOSINOPHIL / ERYTHROCYTE COUNT / HEMATOCRIT / HEMOGLOBIN / LEUKOCYTE COUNT / LYMPHOCYTE / MEAN CORPUSCULAR HEMOGLOBIN / MEAN CORPUSCULAR HEMOGLOBIN CONCENTRATION / MEAN CORPUSCULAR VOLUME / MONOCYTE / NEUTROPHIL / NUCLEATED RED BLOOD CELLS / PLATELET COUNT: tissue Blood; for ALANINE AMINOTRANSFERASE / ALBUMIN / ALKALINE PHOSPHATASE / ASPARTATE AMINOTRANSFERASE / BLOOD UREA NITROGEN / CARBON DIOXIDE / CHLORIDE / CHOLESTEROL / CREATINE PHOSPHOKINASE / CREATININE / GLUCOSE / LACTATE DEHYDROGENASE / LIPASE / PHOSPHORUS / POTASSIUM / SODIUM / TOTAL BILIRUBIN / TOTAL PROTEIN / URIC ACID: tissue Plasma
# [1] = 0 mg/kg, 72 h, dose level Control, time 3 day
# [2] = 0 mg/kg, 120 h, dose level Control, time 5 day
# [3] = 0 mg/kg, dose level Control, time 14 day
# [4] = 1200 mg/kg, 72 h, dose level High, time 3 day
# [5] = 1200 mg/kg, dose level High, time 14 day
smiles,measurement,setting,value
CC[C@H](C)C(=O)O[C@H]1C[C@H](O)C=C2C=C[C@H](C)[C@H](CC[C@@H](O)C[C@@H](O)CC(=O)O)[C@H]21 [PRAVASTATIN],ABSOLUTE BASOPHIL,[1],0 CELLS/uL
same,ABSOLUTE EOSINOPHIL,[1],14 CELLS/uL
same,ABSOLUTE LYMPHOCYTE,[1],11144.67 CELLS/uL
same,ABSOLUTE MONOCYTE,[1],22.5 CELLS/uL
same,ABSOLUTE SEGMENTED NEUTROPHIL,[1],535.5 CELLS/uL
same,BASOPHIL,[1],0%
same,EOSINOPHIL,[1],0.17%
same,ERYTHROCYTE COUNT,[1],5.08 x10E6/uL
same,HEMATOCRIT,[1],32.32%
same,HEMOGLOBIN,[1],12.87 G/DL
same,LEUKOCYTE COUNT,[1],11.72 x10E3/uL
same,LYMPHOCYTE,[1],94.67%
same,MEAN CORPUSCULAR HEMOGLOBIN,[1],25.37 pg
same,MEAN CORPUSCULAR HEMOGLOBIN CONCENTRATION,[1],39.85 G/DL
same,MEAN CORPUSCULAR VOLUME,[1],63.58 fL
same,MONOCYTE,[1],0.17%
same,NEUTROPHIL,[1],5%
same,NUCLEATED RED BLOOD CELLS,[1],0 /100WBC
same,PLATELET COUNT,[1],1084 x10E3/uL
same,ALANINE AMINOTRANSFERASE,[1],67.5 u/L
same,ALBUMIN,[1],4.02 G/DL
same,ALKALINE PHOSPHATASE,[1],374.17 u/L
same,ASPARTATE AMINOTRANSFERASE,[1],83.5 u/L
same,BLOOD UREA NITROGEN,[1],14.5 mg/dL
same,CARBON DIOXIDE,[1],30 mmol/L
same,CHLORIDE,[1],100.5 MEQ/L
same,CHOLESTEROL,[1],71.33 mg/dL
same,CREATINE PHOSPHOKINASE,[1],268.33 u/L
same,CREATININE,[1],0.16 mg/dL
same,GLUCOSE,[1],170.5 mg/dL
same,LACTATE DEHYDROGENASE,[1],81.17 u/L
same,LIPASE,[1],16.67 u/L
same,PHOSPHORUS,[1],10.07 mg/dL
same,POTASSIUM,[1],5.03 MEQ/L
same,SODIUM,[1],142.92 MEQ/L
same,TOTAL BILIRUBIN,[1],0.17 mg/dL
same,TOTAL PROTEIN,[1],5.63 G/DL
same,URIC ACID,[1],0.5 mg/dL
same,ABSOLUTE SEGMENTED NEUTROPHIL,[2],646.83 CELLS/uL
same,NUCLEATED RED BLOOD CELLS,[2],0.17 /100WBC
same,ABSOLUTE BASOPHIL,[3],100 cells/µL
same,ABSOLUTE EOSINOPHIL,[3],57.5 cells/µL
same,ABSOLUTE LYMPHOCYTE,[3],11800 cells/µL
same,ABSOLUTE MONOCYTE,[3],290 cells/µL
same,BASOPHIL,[3],0.47%
same,EOSINOPHIL,[3],0.41%
same,ERYTHROCYTE COUNT,[3],7.31 x10E6/uL
same,HEMATOCRIT,[3],46.8%
same,HEMOGLOBIN,[3],14.69 G/DL
same,LEUKOCYTE COUNT,[3],14.73 x10E3/uL
same,LYMPHOCYTE,[3],80.94%
same,MEAN CORPUSCULAR HEMOGLOBIN,[3],20.09 pg
same,MEAN CORPUSCULAR HEMOGLOBIN CONCENTRATION,[3],31.41 G/DL
same,MEAN CORPUSCULAR VOLUME,[3],64.03 fL
same,MONOCYTE,[3],1.9%
same,NEUTROPHIL,[3],15.1%
same,PLATELET COUNT,[3],1273.62 x10E3/uL
same,ALANINE AMINOTRANSFERASE,[3],56.75 u/L
same,ALBUMIN,[3],3.84 G/DL
same,ALKALINE PHOSPHATASE,[3],530.25 u/L
same,ASPARTATE AMINOTRANSFERASE,[3],78.88 u/L
same,BLOOD UREA NITROGEN,[3],12.25 mg/dL
same,CARBON DIOXIDE,[3],41.38 mmol/L
same,CHLORIDE,[3],102.38 MEQ/L
same,CHOLESTEROL,[3],67.88 mg/dL
same,CREATINE PHOSPHOKINASE,[3],297.25 u/L
same,CREATININE,[3],0.61 mg/dL
same,GLUCOSE,[3],161.88 mg/dL
same,LACTATE DEHYDROGENASE,[3],161.38 u/L
same,LIPASE,[3],16.75 u/L
same,PHOSPHORUS,[3],10.13 mg/dL
same,POTASSIUM,[3],6.73 MEQ/L
same,SODIUM,[3],149 MEQ/L
same,TOTAL BILIRUBIN,[3],0.29 mg/dL
same,TOTAL PROTEIN,[3],6.73 G/DL
same,URIC ACID,[3],1.14 mg/dL
same,ABSOLUTE BASOPHIL,[4],0 CELLS/uL
same,BASOPHIL,[4],0%
same,NUCLEATED RED BLOOD CELLS,"1200 mg/kg, 120 h, dose level High, time 5 day",0 /100WBC
same,ABSOLUTE BASOPHIL,[5],66.7 cells/µL
same,ABSOLUTE EOSINOPHIL,[5],80 cells/µL
same,ABSOLUTE LYMPHOCYTE,[5],4950 cells/µL
same,ABSOLUTE MONOCYTE,[5],1.18 CELLS/uL
same,BASOPHIL,[5],0.33%
same,EOSINOPHIL,[5],0.5%
same,ERYTHROCYTE COUNT,[5],8.11 x10E6/uL
same,HEMATOCRIT,[5],47.4%
same,HEMOGLOBIN,[5],15.87 G/DL
same,LEUKOCYTE COUNT,[5],17.97 x10E3/uL
same,LYMPHOCYTE,[5],29.8%
same,MEAN CORPUSCULAR HEMOGLOBIN,[5],19.53 pg
same,MEAN CORPUSCULAR HEMOGLOBIN CONCENTRATION,[5],33.43 G/DL
same,MEAN CORPUSCULAR VOLUME,[5],58.47 fL
